Laboratory results published in patent publication US7833998B2, “Oral neurotherapeutic cephalosporin sulfoxide and sulfone-containing compositions” (Revaax Pharmaceuticals, LLC, priority 2003, dated 2010).

Tests used:
[1] = system: Wistar rats; settings: rat, literature validation of the method; cited from earlier work
[2] = system: golden hamsters; settings: King et al. 2001; effective anxiolytics at doses of 1 μg/kg and above; cited from earlier work
[3] = system: extracellular neurotransmitter levels in the area of the nucleus accumbens; test: microdialysis of nucleus accumbens, electrochemical detection of metabolites; type: in vivo, Sprague Dawley rats; settings: rats, intra-peritoneal 10 ng to 100 μg/kg, dialysate 15-75 minutes post-treatment
Description: To test this hypothesis, extracellular neurotransmitter levels in the area of the nucleus accumbens were assessed with microdialysis following Δ^3-cefazolin sulfoxide treatment. The accumbens is part of the limbic forebrain best know for its association with the pathophysiology of schizophrenia, conditioned reinforcement and drug addiction but also thought to be involved in sensitization to early life trauma leading to the anxiety disorder PTSD or post traumatic stress disorder (Charney and Bremner (1999) The neurobiology of anxiety disorder. In: NEUROBIOLOGY OF MENTAL ILLNESS (Cahrney, D S, et al eds.), Oxford University Press, New York, pgs 494-517).
Method. Twenty-four male Sprague Dawley rats were anesthetized with sodium pentobarbital (50 mg/kg) and implanted with a unilateral microdialysis guide cannula aimed at the nucleus accumbens. Animals were divided into six groups of four animals each and treated with a range of cefazolin doses (saline vehicle, 10 ng, 100 ng, 1 μg, 10 μg, 100 μg/kg) (FIGS. 6a-c). Two days after recovery from surgery a microdialysis probe (2 mm) was lowered to the area and connected to an infusion pump through Tygon tubing. The dialysate was artificial CSF at pH 7.4 delivered at a flow rate of 1.8 μl/min. The first 30 minutes of dialysate was discarded. Thereafter, samples were collected at 15 minute intervals 45 minutes prior to and 75 minutes following intra-peritoneal administration of Δ^3-cefazolin sulfoxide. Samples were collected into microfuge tubes containing 5 μl of 0.16 N perchloric acid to stabilize catecholamines. At the end of the study, animals were sacrificed and the brains prepared for histology to verify the site of the microdialysis probe.
The levels of dopamine metabolites DOPAC (FIG. 6a) and HVA (FIG. 6b) and serotonin metabolite HIAA (FIG. 6c) were assessed by electrochemical detection. […] Measures from each of the four remaining samples collected between 15-75 minutes post-treatment were analyzed. […] Mean values were analyzed with a one-way ANOVA followed by Bonferroni's post hoc test.

[4] = system: BALBc mice; test: radial arm maze, learning and memory; type: in vivo, mouse; settings: intra-peritoneal 2.5 ng, 250 ng, 25 μg/kg
From the text: The radial arm maze is one of the most commonly used methods for testing spatial learning and memory in rodents. Developed by Olton and co-workers (Olton, D. S., Samuelson, R. J. (1976) J. Experimental Psychology, 2: 97-115), the maze provides the simultaneous choice of several alternative paths for the test subject. Animals must learn which locations provide food (place learning) using visuospatial cues. Animal care. Male BALBc mice weighing 21-23 gm were housed individually in a normal 12:12 light-dark cycle (light on at 0600 hr) and provide food and water ad libitum. The method described below was reported by Crusio et al., (1987) Brain Research, 425: 182-185. The radial arm maze consisted of a central platform and eight arms made of transparent Plexiglas. The central part measured 22 cm in diameter. The closed arms were 25 cm long, 6 cm high and 6 cm wide. Several fresh food pellets were deposited beyond the end of each arm behind a perforated wall. This arrangement served to prevent the animals from selecting a baited arm by smelling the presence or absence of a reward. […] Entry to an arm was counted when the mouse reached the perforated wall. […] The number of errors was recorded for each day of training. […] Dose response effects were assessed by means of a repeated measured two-way ANOVA followed by Bonferroni's post hoc test.

[5] = system: Syrian golden hamsters (Mesocricetus auratus); test: resident/intruder model of offensive aggression (serenic activity); type: in vivo
From the text: Agonistic behavior can be classified as either offensive or defensive aggression (Blanchard, R. J., Blanchard, D. C. (1977) Physiology and Behavior, 1, 197-224; Adams, D. B. (1979) The Behavioral Brain Sciences, 2, 201-241; Albert, D. J. and Walsh, M. L. (1984) Neuroscience and Behavioral Reviews, 8, 5-24). Offensive aggression is characterized by the aggressor initiating an attack on an opponent, while defensive aggression lacks active approach. Both types of aggression have their own unique neurobehavioral systems. The stimuli that elicit offensive and defense attacks are different, as are the sequences of behaviors that accompany each agonistic response. […] Offensive aggression is easily studied using male golden hamsters tested in a resident/intruder paradigm, an established model of offensive aggression ([…]. (1988) Physiology and Behavior, 44, 235-239). Placing an unfamiliar male hamster into the home cage of another male hamster elicits a well-defined sequence of agonistic behaviors from the resident that includes offensive aggression. Animal Care. Male Syrian golden hamsters (Mesocricetus auratus) (140-150 g) obtained from Harlan Sprague-Dawley Laboratories (Indianapolis, Ind.) were housed individually in Plexiglas cages (24 cm×24 cm×20 cm), maintained on a reverse light:dark cycle ([…]:10D; lights on at 19:00 hr) and provided food and water ad libitum. Animals were acclimated to the reverse light:dark cycle for at least two weeks before testing. All behavioral tests were conducted during the dark phase of the circadian cycle. Behavioral Measures and Analysis. Hamsters are nocturnal and as such behavioral tests were performed during the first four hours of the dark phase under dim red illumination. The resident was scored for offensive aggression, e.g., latency to bite the intruder, total contact time with the intruder, the total number of bites, and flank marking, over a 10 minute test period ([…]. (1988) Physiology and Behavior, 44, 235-239). Flank marking is a form of olfactory communication in which a hamster arches its back and rubs pheromone producing flank glands against objects in the environment (Johnston, R. E. (1985) Communication, In: THE HAMSTER REPRODUCTION AND BEHAVIOR. Ed Siegel, H. I. Plenum Press, New York, pp 121-154). […] Parametric data, i.e., latencies and contact time, were analyzed with a one-way ANOVA followed by Newman-Keuls post hoc tests. Non-parametric data, i.e., number of bites and flank marks, were analyzed with Kruskal-Wallis tests followed by Mann-Whitney U tests to determine differences between groups. Method. […] Ninety min after oral gavage an intruder was placed into the home cage and the resident scored for offensive aggression. Following aggression testing, animals were screened for motor activity in an open field paradigm and sexual motivation (FIGS. 4a-b).

[6] = system: Syrian golden hamsters (Mesocricetus auratus); settings: in vivo, po
From the text: Method. […] Ninety min after oral gavage an intruder was placed into the home cage and the resident scored for offensive aggression. Following aggression testing, animals were screened for motor activity in an open field paradigm and sexual motivation (FIGS. 4a-b).

[7] = system: Wistar rats; test: elevated plus-maze; type: in vivo, rat
From the text: The elevated plus-maze was developed for the assessment of anxiolytic and anxiogenic drug effects in the rat (Pellow et al., (1985) Journal of Neuroscience Methods 14: 149-167). The method has been validated behaviorally, physiologically, and pharmacologically. The plus-maze has two open arms and two enclosed arms. […] Conversely, anxiogenic compounds such as yohimbin or amphetamines reduce open arm entries and time spent in the open arms.
Method. Male Wistar rats weighing 250-300 g were group housed in a normal 12:12 light-dark cycle light on at 0800 hour and provided food and water ad libitum. The plus-maze consisted of two open arms, 50×10 cm, and two enclosed arms 50×10×40 cm with an open roof, arranged such that the two open arms were opposite to each other. The maze was elevated to a height of 50 cm. Four groups of five animals each were tested in the plus-maze 90 minutes following oral gavage of either vehicle, or 100 ng/kg, 10 μg/kg, or 1 mg/kg of delta-2-cefazolin-1-sulfoxide (Δ^2-cefazolin sulfoxide). At the start of the experiment the animal was place in the center of the plus maze facing the closed arm. Over a 3 minute observation period, animals were scored for the latency to enter the closed arm, time spent in the closed arm, and the number of open arm entries following the first occupation of the closed arm.

**Q.** Which results are given for `CN1C(=O)CN=C(c2ccccc2)c2cc(Cl)ccc21` [diazepam]?
**A.** number of entries into the open arms [1]: significantly increase; percentage of time spent in the open arms [1]: significantly increase

**Q.** For `CNCCC(Oc1ccc(C(F)(F)F)cc1)c1ccccc1` (centres unmarked) [fluoxetine], which “effect on seed finding” value [2] is on record?
**A.** dramatically reduce

**Q.** Which results are given for `Cc1nnc(SCC2=C(C(=O)O)N3C(=O)[C@@H](NC(=O)Cn4cnnn4)[C@H]3[S+]([O-])C2)s1` (some centres unmarked) [Δ^3-cefazolin sulfoxide, cefazolin-1-sulfoxide]?
**A.** DOPAC levels (dopamine metabolite) ([3]; pg/15 μl (FIG. 6a)): significant (*p<0.05; **p<0.01) dose-dependent increase; HVA levels (dopamine metabolite) ([3]; pg/15 μl (FIG. 6b)): significant (*p<0.05; **p<0.01) dose-dependent increase; HIAA levels (serotonin metabolite) ([3]; pg/15 μl (FIG. 6c)): significant (*p<0.05; **p<0.01) dose-dependent increase; number of errors ([4]; day five, vs vehicle): no significant difference; number of errors ([4]; testing days three and four, vs vehicle control (*p<0.05, **p<0.01) (FIG. 5)): significantly reduced

**Q.** Which “serenic activity, inhibiting offensive aggression” value ([5]; oral gavage) does the source give for delta-2-cefazolin-1-sulfoxide here?
**A.** very effective serenic

**Q.** What about the flank marking ([5]; oral gavage 100 ng/kg, 10 μg/kg, 1 mg/kg, 90 min, 10 minute test (FIG. 3d)) of the same molecule?
**A.** significantly increased

**Q.** What about the latency to bite ([5]; oral gavage 100 ng/kg, 10 μg/kg, 1 mg/kg, 90 min, 10 minute test, p<0.01 (FIG. 3a)) of the same molecule?
**A.** significantly increased

**Q.** What about the number of bites ([5]; oral gavage 100 ng/kg, 10 μg/kg, 1 mg/kg, 90 min, 10 minute test, p<0.01 (FIG. 3c)) of the same molecule?
**A.** decreased

**Q.** What about the contact time ([5]; oral gavage, 90 min, 10 minute test, highest dose (1 mg/kg) (FIG. 3b)) of the same molecule?
**A.** significantly reduced at the highest dose

**Q.** And the “motor activity (open field)” value [6]?
**A.** no change

**Q.** What about the sexual motivation [6] of the same molecule?
**A.** no change

**Q.** What about the “anxiolytic activity in the elevated plus-maze” value ([7]; given orally to rats) of the same molecule?
**A.** dose-dependent anxiolytic activity

**Q.** And the “latency to enter the closed arm” value ([7]; rats, oral gavage 100 ng/kg, 10 μg/kg, 1 mg/kg, 90 min, 3 minute observation, vs vehicle (FIG. 2a))?
**A.** increased

**Q.** What about the “time spent in the open arm” value ([7]; rats, oral gavage 100 ng/kg, 10 μg/kg, 1 mg/kg, 90 min, vs vehicle (FIG. 2b)) of the same molecule?
**A.** significantly increased (p<0.01)

**Q.** For `O=C1CC2(CCCC2)CC(=O)N1CCCCN1CCN(c2ncccn2)CC1` [buspirone], which “effect on seed finding” value [2] is on record?
**A.** dramatically reduce

**Q.** What does the source list for `COC(=O)[C@@H]1[C@H]2C[C@H]3c4[nH]c5ccccc5c4CCN3C[C@@H]2CC[C@@H]1O` [yohimbine]?
**A.** number of entries into the open arms [1]: reduce; percentage of time spent in the open arms [1]: reduce; effect on seed finding [2]: ineffective

**Q.** Which “effect on seed finding” value [2] does the source give for `CNCCCN1c2ccccc2CCc2ccccc21` [desipramine] here?
**A.** ineffective
